Results taken from ChEMBL document CHEMBL1287739, “A novel ring-expanded product with enhanced tyrosinase inhibitory activity from classical Fe-catalyzed oxidation of rosmarinic acid, a potent antioxidative Lamiaceae polyphenol” (Bioorg Med Chem Lett, 2010).

What was measured:
[1] = target: T1, Tyrosinase (Agaricus bisporus, UniProt O42713); assay: Inhibition of mushroom tyrosinase
T1 sequence (O42713 whole entry): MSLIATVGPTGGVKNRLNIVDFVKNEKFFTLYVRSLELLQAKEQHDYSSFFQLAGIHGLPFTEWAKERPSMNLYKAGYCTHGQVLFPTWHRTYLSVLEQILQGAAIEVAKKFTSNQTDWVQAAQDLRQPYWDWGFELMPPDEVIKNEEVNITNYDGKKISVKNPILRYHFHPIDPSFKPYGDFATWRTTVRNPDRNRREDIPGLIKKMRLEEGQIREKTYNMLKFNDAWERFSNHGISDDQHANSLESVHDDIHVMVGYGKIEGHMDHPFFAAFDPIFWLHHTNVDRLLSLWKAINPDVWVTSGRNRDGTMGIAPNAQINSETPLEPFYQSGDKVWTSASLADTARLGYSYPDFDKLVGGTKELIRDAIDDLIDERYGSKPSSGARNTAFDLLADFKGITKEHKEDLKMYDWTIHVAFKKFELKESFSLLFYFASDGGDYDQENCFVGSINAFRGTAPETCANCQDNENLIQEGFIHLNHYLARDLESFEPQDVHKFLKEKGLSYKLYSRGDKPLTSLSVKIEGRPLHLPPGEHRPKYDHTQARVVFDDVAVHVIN

[2] = target: T2, Tyrosinase (Agaricus bisporus) (UniProt O42713); assay: Inhibition of mushroom tyrosinase at 0.10 mM
T2 sequence (whole entry): T1 sequence (O42713 whole entry)

[3] = target: T2, Tyrosinase (Agaricus bisporus); assay: Inhibition of mushroom tyrosinase at 3.00 mM
[4] = target: T2, Tyrosinase (Agaricus bisporus); assay: Inhibition of mushroom tyrosinase at 1.00 mM
[5] = target: T2, Tyrosinase (Agaricus bisporus); assay: Inhibition of mushroom tyrosinase at 10.0 mM

CCOc1cc(=O)c(C[C@@H](OC(=O)/C=C/c2ccc(O)c(O)c2)C(=O)O)coc1=O
IC50 [1]: 80 µM | inhibition [2]: 52.5%

O=C(/C=C/c1ccc(O)c(O)c1)O[C@H](Cc1ccc(O)c(O)c1)C(=O)O [ROSMARINIC ACID]
IC50 [1]: 250 µM | inhibition [3]: 69.8% | inhibition [4]: 40.7% | inhibition [5]: 93.6%
